Laboratory results: patent US20240116928A1 (Gilead Sciences, Inc., priority 2022, published 2024)

Assays:
CD73 [1] = biological target: T1, CD73 (Homo sapiens, UniProt P21589); test: CD73 Biochemical IC50 Assay; conditions: CD73 enzyme (R&D system) final 0.3 nM, final AMP 15 uM, 60 mins incubation, Rapid fire
T1 sequence (P21589 27-549): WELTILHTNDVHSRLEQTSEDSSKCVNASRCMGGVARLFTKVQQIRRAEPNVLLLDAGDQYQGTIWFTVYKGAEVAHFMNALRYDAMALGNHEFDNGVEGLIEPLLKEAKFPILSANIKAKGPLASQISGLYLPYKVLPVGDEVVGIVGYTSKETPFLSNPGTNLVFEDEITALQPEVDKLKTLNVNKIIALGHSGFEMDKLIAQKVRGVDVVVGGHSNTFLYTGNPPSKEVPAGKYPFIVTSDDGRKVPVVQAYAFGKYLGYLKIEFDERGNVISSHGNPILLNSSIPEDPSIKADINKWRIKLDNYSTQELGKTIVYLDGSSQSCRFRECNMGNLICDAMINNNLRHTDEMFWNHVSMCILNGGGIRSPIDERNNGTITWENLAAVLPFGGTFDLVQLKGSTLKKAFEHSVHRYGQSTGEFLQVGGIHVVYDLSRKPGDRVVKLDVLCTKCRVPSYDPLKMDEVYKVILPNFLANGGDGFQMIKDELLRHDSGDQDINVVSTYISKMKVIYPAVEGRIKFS
Procedure: CD73 Biochemical IC50 Assay
Compound serial dilutions were pre-spotted into Thermo Nunc assay plate. 50 μL CD73 enzyme buffer (CD73 purchased from R&D system=0.6 nM, 25 mM Tris, pH 7.4, 5 mM MgCl2, 1 mM NaH2PO4) was added into the assay plate and incubated for 15 mins. […] After incubation for 60 mins, the supernatant 20 uL was transferred into 384-well NUNC plate pre-filled with 60 ul Quench buffer (80% organic and 20% water+0.1% FA) with internal standard. The plate was spun down at 4500 rpm for 20 mins, then 20 μl of supernatant was transferred to another Nunc plate prefilled with 80 μl of water. The samples were run using Rapid fire.

CD73 [2] = biological target: T1, CD73; test: MDA-MB-231 Cell Based CD73 Activity Assay (DMEM); parameters: endogenous in cells; host or cells: MDA-MB-231-GFP; conditions: MDA-MB-231-GFP cells, DMEM with 10% human plasma, overnight compound treatment, 200 uM AMP, 100 mins
Procedure: Cells were plated into assay plate with compounds pre-spotted, for an overnight compound treatment. 50 uL of 400 uM AMP (final concentration will be 200 uM) was added using Bio-tek dispenser. Plates were incubated for 100 mins. 20 uL of supernatant was transferred into 384-well NUNC plate pre-filled with 60 ul Quench buffer (80% organic and 20% water+0.1% FA) with internal standard. The plates were spun down at 4500 rpm for 20 mins, then 20 ul of supernatant was transferred to another Nunc plate prefilled with 80 ul of water. The samples were analyzed using Rapid fire.

IC50 (CD73 [1])	EC50 (CD73 [2])	SMILES
13.1 nM	> 50 nM	Cc1nc(-c2c[nH]c(=O)[nH]c2=O)cc(N2C[C@H](OC(=O)NC(C)C)C(F)(F)C2)n1 [Example 29, (S)-4,4-difluoro-1-(2-methyl-2′,4′-dioxo-1′,2′,3′,4′-tetrahydro-[4,5′-bipyrimidin]-6-yl)pyrrolidin-3-yl isopropylcarbamate]
13 nM	34.8 nM	Cc1nc(-c2c[nH]c(=O)[nH]c2=O)cc(N2C[C@H](OC(=O)NC3(C(F)(F)F)CC3)C(F)(F)C2)n1 [Example 30, (S)-4,4-difluoro-1-(2-methyl-2′,4′-dioxo-1′,2′,3′,4′-tetrahydro-[4,5′-bipyrimidin]-6-yl)pyrrolidin-3-yl (1-(trifluoromethyl)cyclopropyl)carbamate]
